Test results from paper PMC5792193 (Proteins, 2009).
pKd: −log10 of the molar value. Positions of bridges follow the written chain, without caps; N, C: chain ends. Residues, ends and D or L forms follow the SMILES beside them.

What was measured:
[1] = mouse, serum
[2] = test system: U87MG tumor xenograft; conditions: peptide conjugated to a small molecule fluorochrome or radiolabel; compared to weaker binding peptide conjugates including FN-RGD2 and c(RGDyK); cited from earlier work
[3] = human serum, 37 °C, 24 h, reversed-phase HPLC
[4] = target: integrin αvβ3 (Homo sapiens) (UniProt P06756); conditions: cited from earlier work
[5] = test system: U87MG cell adhesion to fibronectin-coated plates; assay: Integrin-dependent cell adhesion assay; format: cell-based, human; conditions: U87MG cells, 2 h
[6] = target: αvβ3 integrin (Homo sapiens, UniProt P05106+P06756); conditions: cited from earlier work
[7] = target: α5β1 integrin (Homo sapiens, UniProt P05556+P08648); conditions: cited from earlier work
Chain of α5β1 integrin (P08648 42-894 limits assumed): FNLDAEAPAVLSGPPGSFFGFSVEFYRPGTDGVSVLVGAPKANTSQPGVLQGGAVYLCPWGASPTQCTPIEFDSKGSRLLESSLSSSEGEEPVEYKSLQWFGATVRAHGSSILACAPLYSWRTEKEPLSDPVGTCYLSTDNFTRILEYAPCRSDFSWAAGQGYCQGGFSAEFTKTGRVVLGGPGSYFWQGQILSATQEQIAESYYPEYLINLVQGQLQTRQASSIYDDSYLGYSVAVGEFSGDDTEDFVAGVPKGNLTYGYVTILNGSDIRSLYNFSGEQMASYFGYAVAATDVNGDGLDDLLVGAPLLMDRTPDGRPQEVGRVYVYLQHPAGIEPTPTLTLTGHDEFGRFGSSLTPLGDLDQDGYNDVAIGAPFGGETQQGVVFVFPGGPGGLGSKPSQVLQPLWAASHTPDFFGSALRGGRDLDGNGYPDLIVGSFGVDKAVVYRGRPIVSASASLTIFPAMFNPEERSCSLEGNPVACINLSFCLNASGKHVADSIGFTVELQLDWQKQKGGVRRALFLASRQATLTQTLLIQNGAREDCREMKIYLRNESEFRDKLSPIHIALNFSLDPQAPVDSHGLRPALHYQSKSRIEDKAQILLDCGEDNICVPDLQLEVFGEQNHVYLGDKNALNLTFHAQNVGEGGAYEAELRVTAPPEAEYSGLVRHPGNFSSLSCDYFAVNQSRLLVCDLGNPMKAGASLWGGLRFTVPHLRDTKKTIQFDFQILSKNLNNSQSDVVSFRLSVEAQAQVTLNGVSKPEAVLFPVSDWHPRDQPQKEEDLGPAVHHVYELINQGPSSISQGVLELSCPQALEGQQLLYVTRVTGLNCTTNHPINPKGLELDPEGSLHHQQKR
Chain of α5β1 integrin (P08648 895-1049 partner limits assumed): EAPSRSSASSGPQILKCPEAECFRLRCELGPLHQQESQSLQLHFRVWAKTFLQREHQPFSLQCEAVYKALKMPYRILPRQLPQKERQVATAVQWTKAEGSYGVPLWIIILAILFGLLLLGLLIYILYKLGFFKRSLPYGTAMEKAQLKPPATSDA
Chain of α5β1 integrin (P05556 21-798): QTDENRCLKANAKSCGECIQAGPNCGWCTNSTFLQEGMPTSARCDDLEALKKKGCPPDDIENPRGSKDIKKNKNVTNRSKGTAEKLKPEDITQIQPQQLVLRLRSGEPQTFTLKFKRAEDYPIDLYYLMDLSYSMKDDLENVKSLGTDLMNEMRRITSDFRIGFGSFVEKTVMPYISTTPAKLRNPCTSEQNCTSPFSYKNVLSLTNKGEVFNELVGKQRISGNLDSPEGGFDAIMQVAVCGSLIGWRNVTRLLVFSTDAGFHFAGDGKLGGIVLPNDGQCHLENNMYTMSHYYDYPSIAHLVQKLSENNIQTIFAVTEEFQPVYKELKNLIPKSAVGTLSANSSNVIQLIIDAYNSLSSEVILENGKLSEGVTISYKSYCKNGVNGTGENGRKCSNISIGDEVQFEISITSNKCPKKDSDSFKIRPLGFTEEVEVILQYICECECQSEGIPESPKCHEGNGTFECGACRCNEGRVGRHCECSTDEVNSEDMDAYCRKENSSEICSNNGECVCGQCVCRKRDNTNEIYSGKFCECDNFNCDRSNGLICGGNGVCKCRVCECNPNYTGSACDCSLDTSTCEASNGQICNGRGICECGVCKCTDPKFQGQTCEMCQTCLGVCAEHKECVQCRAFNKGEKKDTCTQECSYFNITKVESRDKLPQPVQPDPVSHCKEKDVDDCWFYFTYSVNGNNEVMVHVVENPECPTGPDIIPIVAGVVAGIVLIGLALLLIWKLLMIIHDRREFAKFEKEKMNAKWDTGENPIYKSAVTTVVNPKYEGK

Chain of αvβ3 integrin (P06756 31-889 limits assumed): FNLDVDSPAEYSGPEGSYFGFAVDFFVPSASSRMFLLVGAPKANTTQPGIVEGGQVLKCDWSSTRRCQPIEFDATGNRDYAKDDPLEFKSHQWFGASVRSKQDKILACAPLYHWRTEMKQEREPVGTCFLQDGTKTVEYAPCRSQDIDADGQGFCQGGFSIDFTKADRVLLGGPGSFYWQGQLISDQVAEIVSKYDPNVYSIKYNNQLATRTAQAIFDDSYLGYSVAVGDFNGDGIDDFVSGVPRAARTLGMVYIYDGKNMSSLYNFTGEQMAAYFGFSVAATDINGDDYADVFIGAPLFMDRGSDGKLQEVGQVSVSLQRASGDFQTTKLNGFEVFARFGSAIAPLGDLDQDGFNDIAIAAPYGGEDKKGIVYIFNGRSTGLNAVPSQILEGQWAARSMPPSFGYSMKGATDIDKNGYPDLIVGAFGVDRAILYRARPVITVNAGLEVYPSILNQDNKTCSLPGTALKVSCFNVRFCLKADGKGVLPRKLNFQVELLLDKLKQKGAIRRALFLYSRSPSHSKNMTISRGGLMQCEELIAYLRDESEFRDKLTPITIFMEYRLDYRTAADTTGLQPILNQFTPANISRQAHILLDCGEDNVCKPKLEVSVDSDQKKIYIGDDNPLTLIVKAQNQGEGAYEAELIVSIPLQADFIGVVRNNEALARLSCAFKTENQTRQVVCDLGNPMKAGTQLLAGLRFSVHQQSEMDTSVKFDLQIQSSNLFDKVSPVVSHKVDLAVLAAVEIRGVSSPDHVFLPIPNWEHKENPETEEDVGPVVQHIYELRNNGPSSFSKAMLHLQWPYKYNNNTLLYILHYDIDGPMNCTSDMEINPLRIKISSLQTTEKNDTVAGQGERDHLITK
Chain of αvβ3 integrin (P06756 891-1048 partner limits assumed): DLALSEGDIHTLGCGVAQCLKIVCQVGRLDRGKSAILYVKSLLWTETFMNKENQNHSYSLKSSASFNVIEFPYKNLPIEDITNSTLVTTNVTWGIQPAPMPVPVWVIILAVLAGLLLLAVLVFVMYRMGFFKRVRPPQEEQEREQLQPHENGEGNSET
Chain of αvβ3 integrin (P05106 27-788): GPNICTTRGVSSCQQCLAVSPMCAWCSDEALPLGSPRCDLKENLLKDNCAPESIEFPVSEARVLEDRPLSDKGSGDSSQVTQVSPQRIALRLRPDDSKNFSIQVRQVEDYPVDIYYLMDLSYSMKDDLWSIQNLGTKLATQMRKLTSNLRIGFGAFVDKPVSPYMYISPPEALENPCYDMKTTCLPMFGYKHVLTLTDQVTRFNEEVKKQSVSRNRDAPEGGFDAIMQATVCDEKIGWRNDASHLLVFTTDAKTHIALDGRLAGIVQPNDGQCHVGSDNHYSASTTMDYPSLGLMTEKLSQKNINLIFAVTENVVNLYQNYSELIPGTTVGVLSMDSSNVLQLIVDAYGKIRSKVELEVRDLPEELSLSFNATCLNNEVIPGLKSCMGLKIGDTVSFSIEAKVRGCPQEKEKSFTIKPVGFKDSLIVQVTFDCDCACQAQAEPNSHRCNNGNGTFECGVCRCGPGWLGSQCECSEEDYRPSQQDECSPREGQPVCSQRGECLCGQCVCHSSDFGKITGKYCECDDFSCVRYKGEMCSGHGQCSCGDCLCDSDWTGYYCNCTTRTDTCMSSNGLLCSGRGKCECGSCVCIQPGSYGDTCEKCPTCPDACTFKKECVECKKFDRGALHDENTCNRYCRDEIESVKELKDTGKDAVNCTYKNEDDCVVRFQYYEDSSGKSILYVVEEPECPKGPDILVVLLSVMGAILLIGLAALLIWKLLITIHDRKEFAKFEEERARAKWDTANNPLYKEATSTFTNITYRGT
Chain of integrin αvβ3 (Homo sapiens) (P06756 31-1048, chain 1 of 2): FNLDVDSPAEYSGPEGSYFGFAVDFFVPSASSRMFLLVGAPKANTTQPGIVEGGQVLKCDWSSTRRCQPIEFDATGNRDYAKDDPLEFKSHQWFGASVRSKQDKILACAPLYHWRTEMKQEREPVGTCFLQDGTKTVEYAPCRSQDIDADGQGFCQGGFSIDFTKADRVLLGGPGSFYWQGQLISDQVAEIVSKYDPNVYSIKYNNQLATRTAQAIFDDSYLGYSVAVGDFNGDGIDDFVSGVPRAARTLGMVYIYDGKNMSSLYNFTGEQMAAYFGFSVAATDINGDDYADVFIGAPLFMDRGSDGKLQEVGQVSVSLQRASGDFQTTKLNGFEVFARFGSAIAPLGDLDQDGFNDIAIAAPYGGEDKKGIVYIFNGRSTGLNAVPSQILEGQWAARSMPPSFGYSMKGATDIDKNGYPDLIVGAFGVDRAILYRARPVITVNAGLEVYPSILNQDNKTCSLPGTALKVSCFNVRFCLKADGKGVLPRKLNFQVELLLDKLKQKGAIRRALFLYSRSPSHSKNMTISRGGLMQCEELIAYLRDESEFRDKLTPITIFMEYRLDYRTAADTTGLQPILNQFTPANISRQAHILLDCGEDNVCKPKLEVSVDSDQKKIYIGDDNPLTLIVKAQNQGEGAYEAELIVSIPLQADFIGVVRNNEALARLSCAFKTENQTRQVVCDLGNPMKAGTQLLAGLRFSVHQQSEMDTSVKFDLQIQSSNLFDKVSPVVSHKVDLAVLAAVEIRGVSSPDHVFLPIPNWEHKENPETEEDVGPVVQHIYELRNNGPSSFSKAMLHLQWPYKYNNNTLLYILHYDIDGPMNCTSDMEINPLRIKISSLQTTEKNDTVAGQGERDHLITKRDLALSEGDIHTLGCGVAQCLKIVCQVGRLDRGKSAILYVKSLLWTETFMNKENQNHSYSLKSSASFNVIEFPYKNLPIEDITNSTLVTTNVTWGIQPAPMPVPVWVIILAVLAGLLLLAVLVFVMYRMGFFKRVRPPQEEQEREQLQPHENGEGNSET
Chain of integrin αvβ3 (Homo sapiens) (P05106 27-788, chain 2 of 2, further chain): as the sequence (P05106 27-788) above
Chain of Echistatin (P17347 131-179): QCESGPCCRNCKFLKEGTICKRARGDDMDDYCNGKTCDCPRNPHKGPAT

Compound: CC(C)C[C@@H]1NC(=O)[C@@H]2CSSC[C@@H](C(=O)NCC(=O)O)NC(=O)[C@H](Cc3ccccc3)NC(=O)CNC(=O)[C@H](CC(N)=O)NC(=O)[C@@H]3CCCN3C(=O)CNC(=O)[C@@H]3CSSC[C@H](NC(=O)[C@H](CO)NC(=O)[C@H]([C@@H](C)O)NC(=O)[C@@H]4CCCN4C(=O)[C@H](C)NC(=O)[C@H](Cc4c[nH]c5ccccc45)NC(=O)[C@H](CC(=O)O)NC(=O)CNC(=O)[C@H](CCCNC(=N)N)NC(=O)CNC(=O)[C@H](CCC(N)=O)NC(=O)[C@@H]4CCCN4C(=O)[C@@H](NC(=O)CN)CSSC[C@H](NC(=O)CNC(=O)[C@H](C)NC1=O)C(=O)N[C@@H](C(C)C)C(=O)N3)C(=O)N[C@@H](CO)C(=O)N[C@@H](CCC(N)=O)C(=O)N[C@@H](CC(=O)O)C(=O)N[C@@H](CO)C(=O)N[C@@H](CC(=O)O)C(=O)N2 [2.5D] (H-GCPQGRGDWAPTSCSQDSDCLAGCVCGPNGFCG-OH; disulfide 2-24, 14-26, 20-32)
- remaining at 24 h [1]: ~90%
- tumor uptake (in words) [2]: significant increase in tumor uptake
- intact peptide remaining [3]: approximately 90%

Compound: Echistatin (from UniProt P17347)
- pKd [4]: 9.44

Compound: Echistatin
- block of U87MG cell adhesion to fibronectin-coated plates (in words) [5]: able to block

Compound: CC(C)C[C@@H]1NC(=O)[C@@H]2CSSC[C@@H](C(=O)NCC(=O)O)NC(=O)[C@H](Cc3ccccc3)NC(=O)CNC(=O)[C@H](CC(N)=O)NC(=O)[C@@H]3CCCN3C(=O)CNC(=O)[C@@H]3CSSC[C@H](NC(=O)[C@H]([C@@H](C)O)NC(=O)[C@H](CC(C)C)NC(=O)[C@@H]4CCCN4C(=O)[C@@H]4CCCN4C(=O)[C@H](CC(N)=O)NC(=O)[C@H](CC(=O)O)NC(=O)CNC(=O)[C@H](CCCNC(=N)N)NC(=O)[C@@H]4CCCN4C(=O)[C@H](CCCNC(=N)N)NC(=O)[C@@H]4CCCN4C(=O)[C@@H](NC(=O)CN)CSSC[C@H](NC(=O)CNC(=O)[C@H](C)NC1=O)C(=O)N[C@@H](C(C)C)C(=O)N3)C(=O)N[C@@H](CO)C(=O)N[C@@H](CCC(N)=O)C(=O)N[C@@H](CC(=O)O)C(=O)N[C@@H](CO)C(=O)N[C@@H](CC(=O)O)C(=O)N2 [2.5F] (H-GCPRPRGDNPPLTCSQDSDCLAGCVCGPNGFCG-OH; disulfide 2-24, 14-26, 20-32)
- tumor uptake (in words) [2]: significant increase in tumor uptake

Compound: Ac-PHSCN-NH2 [ATN-161]
- binding affinity to αvβ3 integrin (in words) [6]: micromolar affinity
- binding affinity to α5β1 integrin (in words) [7]: micromolar affinity
